Laboratory results taken from patent publication US20010046968A1, “Opioid growth factor modulates angiogenesis” (priority 2000, published 2001).
“Also recorded” adds a separate entry of the source.

Experiments:
[1] = system: CAM blood vessels (angiogenesis); assay: Chorioallantoic membrane (CAM) model, drug-impregnated methylcellulose disk, image analysis of blood vessels (Example 1); format: in vivo, chicken; details: for effect on angiogenesis / blood vessel growth vs control: 5 μg each per disk; for Blood Vessel Mean Length / Blood Vessel Number / Blood Vessel Length: 48 hours, mean ± SEM; for Blood Vessel Length: total length
Experimental: (§1) The CAM model utilized in these studies has been described by Mazo et al. (FASEB J. 13: A527, 1999). In brief, fertilized white broiler chicken eggs were obtained from a local hatchery and kept at room temperature for 48 hours. The outside of the shells were washed with soap, and placed in a 70% ethyl alcohol bath for 30 seconds. The eggs were incubated at 37° C. for three days and rotated 180 degrees three times daily. After incubation, the eggs were cleansed with an iodine solution and dried on a sterile tray. The eggs were cracked, and the embryos explanted into spherical plastic 100 mm×25 mm weigh boats. Specimens were covered with a plastic lid, placed in a humidified chamber at 37° C., and maintained for 48 to 72 hours until the CAM achieved at least a 10 mm diameter.
Methylcellulose disks were prepared as reported by Mazo et al. (FASEB J. 13: A527, 1999). […] These doses were selected on the basis of prior animal and culture studies (Zagon I. S. et al., Am. J Physiol, 270: R22-R32 (1996); McLaughlin P. J. et al., Int. J. Oncol., 14: 991-998 (1999)). An equivalent volume of distilled water was utilized as a control (n=13). Another series of experiments employed retinoic acid (RA: 1 μg) (Oikawa T. et al., Cancer Letters, 48: 157-162 (1989)) (n=12), VEGF (1 μg) (Wilting J. et al., Cell Tissue Res., 274: 163-174 (1993)) (n=10) and an equivalent volume of water (n=10) to validate the CAM model employed, and to provide an internal comparison to the potential angiogenic effects of OGF with other known angioactive agents. These methylcellulose solutions were placed on the tips of 3.2 mm diameter Teflon rods and allowed to dry at room temperature for 1 hour under a vacuum hood. The resultant dried disks were removed from the Teflon rods and placed on the outer third of the CAM. Only one disk was placed on each CAM. The eggs were returned to the incubator for an additional 48 hours of growth prior to examination by image analysis (Mazo J. E. et al., FASEB J., 13: A527 (1999)).
Image analysis was preformed as described previously (Mazo J. E. et al., FASEB J, 13: A527 (1999)). The location of the disk was located visually on the CAM. An identifying mark was placed in the center of the disk and 2 ml of a 10% intralipid solution was injected into the CAM obscuring the underlying yolk vessels and providing an opaque white background for the superficial vessels. The CAM was imaged on a three-chip digital camera (DKC 500 Sony, Tokyo, Japan), digitized, and exported to a personal computer (FIG. 1). A 100 mm^2 region was defined around the disk in which blood vessel quantitation was performed (Optimas 6.0, Mediacybernetics, Bothell, Wash.). Calibration was achieved by imaging a ruler placed adjacent to the embryo preparation.
All arteries and veins in this designated region centered on the applied disk were analyzed. From the digitized image, an overlying mask was created and all blood vessels were traced within the region in an unblinded manner by two different individuals. The total number of blood vessels were counted and their individual lengths added to obtain total blood vessel length.
Data were exported to Microsoft Excel (Excel 97, Microsoft, Redmond, Wash.). All values were expressed as the mean±standard error of the mean. Statistical analysis was performed using the SigmaStat 1.0 statistical software package (Jandel, San Rafael, Calif.). The Mann-Whitney rank sum test or the Student t test was used to compare continuous data. Either the Fischer exact test or χ^2 test were used for dichotomous data. A p value of less than 0.05 indicated statistical significance.

[2] = system: CAM arteries and veins (angiogenesis); assay: CAM assay with separate counting of arteries and veins (Example 2); format: in vivo, chick; details: for Number of Vessels, Artery / Number of Vessels, Vein / Total Vessel Length, Artery / Total Vessel Length, Vein / Number of Vessels, A/V Ratio / Total Vessel Length, A/V Ratio: mean ± SEM
Experimental: The CAM assay described above was utilized. After 3 days of incubation, fertilized chick embryos were explanted and 3.2 mm methylcellulose disk containing a compound was placed onto the CAM surface. After 2 days of growth, the CAM arteries and veins were identified and imaged with a digital camera. Arteries and veins were identified based on the presence of vessel pulsation (arteries), color, and direction of blood flow within the vessels. The main artery was oriented vertically with flow originating inferiorly. A white 10% intralipid solution was injected into the CAM to enhance visualization. Total number and length of veins and arteries were counted and measured.

[3] = system: embryos; assay: Embryo survival after placement of drug onto the CAM; format: in vivo, chicken; details: 48 hours after placement of drug onto the CAM
Experimental: as §1
Methylcellulose disks were prepared as reported by Mazo et al. (FASEB J. 13: A527, 1999). […] These doses were selected on the basis of prior animal and culture studies (Zagon I. S. et al., Am. J Physiol, 270: R22-R32 (1996); McLaughlin P. J. et al., Int. J. Oncol., 14: 991-998 (1999)). An equivalent volume of distilled water was utilized as a control (n=13). […]

[4] = 1 μg per disk, another series of experiments

## C=CCN1CC[C@]23c4c5ccc(O)c4O[C@H]2C(=O)CC[C@@]3(O)[C@H]1C5 [NAL, naloxone, reference compound]
[1]
  effect on angiogenesis / blood vessel growth vs control: no effect on vessel growth

## O=C1CC[C@@]2(O)[C@H]3Cc4ccc(O)c5c4[C@@]2(CCN3CC2CC2)[C@H]1O5 [Naltrexone, reference compound]
[1]
  effect on angiogenesis / blood vessel growth vs control: Vessel inhibition is no longer seen
[1]; 5 μg per disk
  effect on total blood vessel length vs control: increased
  effect on total number of blood vessels vs control: increased
[1]; 5 μg per disk, listed as NTX
  effect on mean blood vessel length vs control: decreased; also recorded: marked decrease
[2]; 0.1 μg disk
  Number of Vessels, Artery: 80 ± 6
  Number of Vessels, Vein: 83 ± 4
  Total Vessel Length, Artery: 112 ± 6 mm
  Total Vessel Length, Vein: 118 ± 6 mm
[2]; 5.0 μg disk
  Number of Vessels, Artery: 203 ± 7
  Number of Vessels, Vein: 97 ± 4
  Total Vessel Length, Artery: 174 ± 4 mm
  Total Vessel Length, Vein: 105 ± 2 mm
[2]; summary of Table II
  effect on mean length of blood vessels: decreased
  effect on total number and length of blood vessels in comparison to controls: markedly increased both total number and length of all blood vessels

## CC1=C(/C=C/C(C)=C/C=C/C(C)=C/C(=O)O)C(C)(C)CCC1 [Retinoic acid, retinoic acid, reference compound]
[1]; 1 μg per disk
  decrease in number of blood vessels compared to control group: 60%
  decrease in total blood vessel length compared to control group: 33%
  increase in mean blood vessel length relative to control group: 75%
[1]; [4]
  Blood Vessel Mean Length: 2.07 ± 0.13 mm
  Blood Vessel Number: 79 ± 10
  Blood Vessel Length: 153 ± 11 mm
[2]; dose not given
  Number of Vessels, A/V Ratio: 1.5 ± 0.1
  Number of Vessels, Artery: 60 ± 5
  Number of Vessels, Vein: 39 ± 3
  Total Vessel Length, A/V Ratio: 1.3 ± 0.1
  Total Vessel Length, Artery: 83 ± 5 mm
  Total Vessel Length, Vein: 66 ± 4 mm

## VEGF
[1]; 1 μg per disk
  decrease in mean blood vessel length in comparison to control: 33%
  effect on blood vessel growth vs control: excitatory effect on blood vessel growth
  effect on calculated mean vessel length vs control: decreased
  effect on number of blood vessels vs control: markedly increased
  effect on total length of blood vessels vs control: marked increase
  increase in total vessel length in comparison to control: 22%
  increase in vessel number in comparison to control: 83%
[1]; [4]
  Blood Vessel Mean Length: 0.79 ± 0.02 mm
  Blood Vessel Number: 358 ± 16
  Blood Vessel Length: 280 ± 7 mm
[2]; 0.2 μg disk
  Number of Vessels, A/V Ratio: 1.3 ± 0.1
  Number of Vessels, Artery: 83 ± 5
  Number of Vessels, Vein: 75 ± 11
  Total Vessel Length, A/V Ratio: 1.2 ± 0.1
  Total Vessel Length, Artery: 117 ± 3 mm
  Total Vessel Length, Vein: 109 ± 14 mm
[2]; 1.0 μg disk
  Number of Vessels, A/V Ratio: 2.2 ± 0.2
  Number of Vessels, Artery: 248 ± 13
  Number of Vessels, Vein: 120 ± 7
  Total Vessel Length, A/V Ratio: 1.5 ± 0.2
  Total Vessel Length, Artery: 173 ± 8 mm
  Total Vessel Length, Vein: 117 ± 5 mm

## [Met^5]-enkephalin [OGF]
[1]
  effect on angiogenesis / blood vessel growth vs control: blood vessel growth was suppressed; also recorded: marked inhibitory effect on angiogenesis
[1]; 5 μg per disk
  decrease in number of blood vessels in comparison to controls: 35%
  decrease in total blood vessel length in contrast to control: 20%
  effect on mean blood vessel length vs control: significantly increases
  effect on total blood vessel length vs control: significantly inhibited
  effect on total number of blood vessels vs control: significantly decreases
  increase in mean blood vessel length from control values: 23%
[1]; 5 μg per disk, 100 mm^2 region around disk
  Blood Vessel Number: 102 ± 11
[1]; 5 μg per disk, 100 mm^2 region
  Blood Vessel Mean Length: 1.81 ± 0.13 mm
  Blood Vessel Length: 179 ± 12 mm
[2]; 1.0 μg disk
  Number of Vessels, A/V Ratio: 1.1 ± 0.2
  Number of Vessels, Artery: 53 ± 5
  Number of Vessels, Vein: 56 ± 8
  Total Vessel Length, A/V Ratio: 1.2 ± 0.2
  Total Vessel Length, Artery: 84 ± 5 mm
  Total Vessel Length, Vein: 81 ± 11 mm
[2]; 5.0 μg disk
  Number of Vessels, A/V Ratio: 1.6 ± 0.1
  Number of Vessels, Artery: 79 ± 4
  Number of Vessels, Vein: 51 ± 2
  Total Vessel Length, A/V Ratio: 1.3 ± 0.1
  Total Vessel Length, Artery: 107 ± 4 mm
  Total Vessel Length, Vein: 82 ± 3 mm
[2]; summary of Table II
  effect on artery/vein ratios for vessel number and length: decreased artery/vein ratios
  effect on total number and length of blood vessels in comparison to controls: decreased total number and length of blood vessels
[3]
  toxicity (embryo survival): all embryos survived
